Source: paper PMC8078842 (PLoS Neglected Tropical Diseases, 2021)
Read-outs that look alike come from different tables or passages of the source.

What was measured:
[1] = In vivo pharmacokinetic brain distribution with [^3H(G)]pentamidine; design: species or system BALB/c mice; settings: 2 hours post-injection i.v., corrected for vascular/[^14C]sucrose space
[2] = tested on: Decarboxylase, Glutamic Acid; test: CNS side effect panel, [^14C]Glutamic acid; type: biochemical; settings: pentamidine 1.0E^-5 M
[3] = target: T1, Dopamine, D2s (h) (Homo sapiens, UniProt P14416); test: CNS side effect panel, [^3H]-Raclopride; type: binding; settings: pentamidine 1.0E^-5 M
T1 construct: purchased Perkin-Elmer Science Discovery Systems (NovaScreen), customised CNS screening panel

[4] = tested on: Potassium Channel, ATP-Sensitive; test: CNS side effect panel, [^3H]Glibenclamide; type: binding; settings: pentamidine 1.0E^-5 M
[5] = human, in vivo; cited from earlier work
[6] = target: Muscarinic, Non-selective, Central; test: CNS side effect panel, [^3H]QNB; type: binding
[7] = tested on: Imidazoline2 receptor; settings: 3H-idazoxan binding; cited from earlier work
[8] = tested on: Trypanosoma brucei gambience; settings: cited from earlier work
[9] = target: T2, Dopamine, D1 (h) (Homo sapiens, UniProt P21728); test: CNS side effect panel, [^3H]-SCH23390; type: binding; settings: pentamidine 1.0E^-5 M
T2 construct: purchased Perkin-Elmer Science Discovery Systems (NovaScreen), customised CNS screening panel

[10] = tested on: Acid sensing ion channels (ASIC); settings: Potency 1b>3>2a>or = 1a; cited from earlier work
[11] = tested on: Adenosine, Non-selective; test: CNS side effect panel, [^3H]NECA; type: binding; settings: pentamidine 1.0E^-5 M
[12] = target: cloned hKir2.1 potassium channels (Homo sapiens, UniProt P63252); test: cell-based
[13] = tested on: Serotonin, Non-selective; test: CNS side effect panel, [^3H] LSD; type: binding; settings: pentamidine 1.0E^-5 M
[14] = tested on: Glycine, Strychnine-sensitive; test: CNS side effect panel, [^3H]Strychnine; type: binding; settings: pentamidine 1.0E^-5 M
[15] = tested on: PRL phosphatases; settings: Oncology target; cited from earlier work
[16] = tested on: Glutamate, AMPA Site (Ionotropic); test: CNS side effect panel, [^3H]AMPA; type: binding; settings: pentamidine 1.0E^-5 M
[17] = tested on: Angiotensin II, AT2; test: CNS side effect panel, [^125I]Tyr4-Angiotensin II; type: binding; settings: pentamidine 1.0E^-5 M
[18] = tested on: Adrenergic, Alpha 1, Non-selective; test: CNS side effect panel, [^3H]7-MeOxy-Prazosin; type: binding; settings: pentamidine 1.0E^-5 M
[19] = Drug release from dialysis cells (Ritger-Peppas model); type: physicochemical; settings: 10 mM PTI ± 1% Pluronic, water, 37°C
Description: The tube was immersed in a 200 mL closed Duran flask which was placed in a water bath at 37°C for the duration of the experiment.
The data was fitted to Ritger-Peppas model.
Where M and M∞ are the cumulative amounts of drug released at time t and at infinite time, respectively; k, the reaction constant, t the time, n, the diffusional exponent describing the type of regime type: n = 1, case II transport, n = 0.5, Fickian diffusion, 0.5<n<1 non-Fickian diffusion.

[20] = tested on: Serine proteases; settings: cited from earlier work
[21] = tested on: Glutamate, MK-801 Site (Ionotropic); test: CNS side effect panel, [^3H]MK-801; type: binding; settings: pentamidine 1.0E^-5 M
[22] = tested on: GABA A, Agonist Site; test: CNS side effect panel, [^3H]GABA; type: binding; settings: pentamidine 1.0E^-5 M
[23] = tested on: Esterase, Acetylcholine; test: CNS side effect panel, Acetylthiocholine; type: biochemical; settings: pentamidine 1.0E^-5 M
[24] = tested on: Adrenergic, Alpha 2, Non-selective; test: CNS side effect panel, [^3H]RX821002; type: binding; settings: pentamidine 1.0E^-5 M
[25] = tested on: Glutamate, NMDA Agonist Site (Ionotropic); test: CNS side effect panel, [^3H]CGP 39653; type: binding; settings: pentamidine 1.0E^-5 M
[26] = tested on: Sodium, Site 2; test: CNS side effect panel, [^3H]Batrachotoxin A 20-a-Benzo; type: binding; settings: pentamidine 1.0E^-5 M
[27] = tested on: Glutamate, Kainate Site (Ionotropic); test: CNS side effect panel, [^3H]Kainic acid; type: binding; settings: pentamidine 1.0E^-5 M
[28] = tested on: Rat NMDA receptor; settings: Rat brain membrane 3H-dizocilpine binding; cited from earlier work
[29] = tested on: Cholecystokinin, CCK2 (CCKB); test: CNS side effect panel, [^125I]CCK-8; type: binding; settings: pentamidine 1.0E^-5 M
[30] = tested on: Calmodulin; settings: Inhibits nNO synthase in vitro; cited from earlier work
[31] = target: T3, Endothelin, ET-B (h) (Homo sapiens, UniProt P24530); test: CNS side effect panel, [^125I]-Endothelin-1; type: binding; settings: pentamidine 1.0E^-5 M
T3 construct: purchased Perkin-Elmer Science Discovery Systems (NovaScreen), customised CNS screening panel
T3 sequence (P24530 27-442): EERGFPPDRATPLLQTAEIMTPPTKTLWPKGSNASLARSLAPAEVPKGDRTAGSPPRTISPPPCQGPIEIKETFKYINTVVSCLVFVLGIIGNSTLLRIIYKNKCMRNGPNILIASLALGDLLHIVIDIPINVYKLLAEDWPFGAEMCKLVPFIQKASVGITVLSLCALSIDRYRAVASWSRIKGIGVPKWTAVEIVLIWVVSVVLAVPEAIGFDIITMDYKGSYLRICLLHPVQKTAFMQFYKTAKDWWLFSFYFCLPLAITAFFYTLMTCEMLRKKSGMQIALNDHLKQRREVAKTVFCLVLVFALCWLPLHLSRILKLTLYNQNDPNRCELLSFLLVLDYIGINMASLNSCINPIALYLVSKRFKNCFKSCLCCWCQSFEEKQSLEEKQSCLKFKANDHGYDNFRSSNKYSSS

Sequence of cloned hKir2.1 potassium channels (P63252 whole entry): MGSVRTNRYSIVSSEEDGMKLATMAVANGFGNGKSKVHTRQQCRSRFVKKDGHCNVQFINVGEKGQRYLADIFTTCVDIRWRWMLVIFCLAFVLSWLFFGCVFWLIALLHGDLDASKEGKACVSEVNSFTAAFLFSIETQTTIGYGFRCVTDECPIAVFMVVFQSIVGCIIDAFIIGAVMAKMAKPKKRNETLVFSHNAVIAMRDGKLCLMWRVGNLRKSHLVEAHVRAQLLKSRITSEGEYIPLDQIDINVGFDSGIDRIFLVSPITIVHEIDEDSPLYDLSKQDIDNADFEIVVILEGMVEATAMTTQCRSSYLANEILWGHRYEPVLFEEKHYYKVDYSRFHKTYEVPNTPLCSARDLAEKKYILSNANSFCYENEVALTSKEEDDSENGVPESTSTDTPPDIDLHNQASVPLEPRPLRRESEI
T2 sequence (P21728 whole entry): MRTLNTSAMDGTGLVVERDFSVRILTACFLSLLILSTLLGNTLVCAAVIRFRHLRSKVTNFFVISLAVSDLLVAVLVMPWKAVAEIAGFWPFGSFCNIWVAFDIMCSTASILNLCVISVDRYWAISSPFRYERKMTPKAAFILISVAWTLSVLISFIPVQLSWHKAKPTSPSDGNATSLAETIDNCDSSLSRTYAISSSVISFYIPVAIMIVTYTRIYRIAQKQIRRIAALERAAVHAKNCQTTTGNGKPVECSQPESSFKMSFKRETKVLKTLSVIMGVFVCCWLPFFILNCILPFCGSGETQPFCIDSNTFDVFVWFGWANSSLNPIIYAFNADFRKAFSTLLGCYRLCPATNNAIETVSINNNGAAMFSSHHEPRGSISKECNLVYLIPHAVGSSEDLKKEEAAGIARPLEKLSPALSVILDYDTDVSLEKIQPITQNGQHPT
T1 sequence (P14416 1-414 isoform P14416-2): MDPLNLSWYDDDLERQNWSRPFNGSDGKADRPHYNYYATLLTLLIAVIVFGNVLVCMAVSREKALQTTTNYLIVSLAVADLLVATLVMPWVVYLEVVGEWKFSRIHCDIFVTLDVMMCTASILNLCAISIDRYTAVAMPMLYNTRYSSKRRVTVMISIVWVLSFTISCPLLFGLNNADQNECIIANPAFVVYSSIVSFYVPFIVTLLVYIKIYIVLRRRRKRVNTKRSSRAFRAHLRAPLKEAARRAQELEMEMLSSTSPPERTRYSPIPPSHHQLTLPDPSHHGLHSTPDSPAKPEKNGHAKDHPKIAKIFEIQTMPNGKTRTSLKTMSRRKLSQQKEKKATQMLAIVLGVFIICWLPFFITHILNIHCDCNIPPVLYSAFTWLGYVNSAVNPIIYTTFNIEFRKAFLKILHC

Molecule: [^3H(G)]pentamidine
- RTISSUE/PLASMA% (mean±SEM) Cerebellum [1]: 204.02 (± 35.28) %
- RTISSUE/PLASMA% (mean±SEM) Choroid plexus [1]: 24666.66 (± 4928) %
- RTISSUE/PLASMA% (mean±SEM) Homogenate [1]: 249.41 (± 35.59) %
- RTISSUE/PLASMA% (mean±SEM) Left brain [1]: 152.29 (± 33.48) %
- RTISSUE/PLASMA% (mean±SEM) Midbrain [1]: 181.18 (± 45.30) %
- RTISSUE/PLASMA% (mean±SEM) Pellet [1]: 479.72 (± 72.50) %
- RTISSUE/PLASMA% (mean±SEM) Pituitary gland [1]: 15053.41 (± 3598) %
- RTISSUE/PLASMA% (mean±SEM) Right brain [1]: 115.52 (± 12.46) %
- RTISSUE/PLASMA% (mean±SEM) Supernatant [1]: 123.35 (± 28.45) %

Molecule: N=C(N)c1ccc(OCCCCCOc2ccc(C(=N)N)cc2)cc1 [Pentamidine, 1,5-bis-4ρ-amidinophenoxypentane]
- Percent Inhibition [2]: -1.41%
- Percent Inhibition [3]: 20.12%
- Percent Inhibition [4]: 6.07%
- incidence of diabetes mellitus [5]: occasional but irreversible
- incidence of hypoglycaemia [5]: 5-40%
- Ki ([6]; Muscarinic (central), concentration-response): 0.281 µM
- Percent Inhibition ([6]; pentamidine 1.0E^-5 M): 90.90%
- Affinity [7]: 0.014 µM
- Affinity, Trypanocidal ([8]; Time-dependent): 0.01 µM
- trypanocidal activity in vitro [8]: around 10 nM
- IC50 ([8]; comparator for relative selectivity, read-out: Trypanocidal Activity (IC50), printed in column Ki): 0.01 µM
- IC50 ([8]; read-out: IC50): 0.0147 ± 0.0047 µM
- Percent Inhibition [9]: 27.48%
- Affinity [10]: 38 µM
- Percent Inhibition [11]: 1.28%
- IC50 [12]: > 10 µM
- Percent Inhibition [13]: 0.09%
- Percent Inhibition [14]: -0.22%
- Affinity [15]: 3 µM
- Percent Inhibition [16]: 1.34%
- Percent Inhibition [17]: 2.96%
- Percent Inhibition [18]: 100.77%
- reaction constant (k, Ritger-Peppas) [19]: ~0.3
- reaction type (diffusional exponent n, Ritger-Peppas) [19]: ca. 0.5
- Affinity [20]: 4000 µM
- Percent Inhibition [21]: 6.25%
- Percent Inhibition [22]: 31.10%
- Percent Inhibition [23]: 23.21%
- Percent Inhibition [24]: 56.14%
- Percent Inhibition [25]: 5.99%
- Percent Inhibition [26]: 46.94%
- Percent Inhibition [27]: -13.63%
- Affinity [28]: 1.8 µM
- Percent Inhibition [29]: 0.09%
- Affinity [30]: 30 µM
- Percent Inhibition [31]: 4.50%
